The target in assay [1] is T1, DNA polymerase I (Escherichia coli, UniProt P00582).
T1 construct: purchased BRL (Nick Translation System)
As to the kind of experiment: Incorporation of dATP/dCTP and analogs into plasmid DNA by nick translation (3H-dGTP tracer). Format: biochemical, E. coli. To be noted: 1.5 h, tracer 3H-dGTP incorporation relative to reaction mixture containing dNTP's and no derivatives, duplicate figures = two determinations. As for the experimental part: Incorporation into Plasmid DNA of Biotinylated dATP Derivatives
The time course and levels of incorporation were studied as a function of linker size.
(§1) Using the BRL Nick Translation System, dATP and various derivatives were incorporated into plasmid DNA.
(§2) At each time point of interest, 2 μl from the reaction mixture was withdrawn, spotted on glass fiber filters (GF/C), washed in 10% trichloroacetic acid (TCA) once and 5% TCA twice, and dried after washing in alcohol. The filters were counted in a liquid scintillation counter.
The relative levels of incorporation of the modified nucleotides at the 90 minute time point are seen in Table 1 below, in which the data are reported as percent incorporation of the tracer radio-nucleotide (^3 H-dGTP) relative to incorporation resulting from a reaction mixture containing dNTP's and no derivatives. Duplicate figures indicate two determinations. Results for dCTP and analogs appear also.

Assay [2] relates to streptavidin-biotin alkaline phosphatase system. As to the kind of experiment: Sensitivity of detection of probes biotinylated with various linker lengths, spotted on nitrocellulose. As for the experimental part:
(§3) The reaction volume was 1 ml. At 10 minutes, 30 minutes and 90 minutes, 200 μl of the reaction mixture was removed and the reaction quenched with 30 mM EDTA. The DNA from each sample was purified on a Sephade® G-50 column. […] In Table 2, "+" or "-" indicates the presence or absence, respectively of visible spots; it can be seen that a high degree of sensitivity exists even with a relatively low level of biotin incorporation.
Probes biotinylated with various linker lengths were then compared for sensitivity of detection. Plasmid DNA was nick translated according to the described protocol with Biotin-n-dATP, for n=7, 14, 3 or 10. The biotinylated DNA's were then purified from unincorporated nucleotides by gel filtration on Sephadex® G-50 in 1×SSC (0.15 M NaCl, 0.015 M sodium citrate) containing 0.1% SDS. The biotinylated DNA was diluted into 6×SSC containing 0.2 μg/μl sheared herring sperm DNA and spotted onto nitrocellulose paper in the range of 50 pg/5 μl to 1 pg/5 μl. After 30 minutes' incubation in the NBT/BCIP dye mixture of the BRL DNA Detection System, 2 pg spots of Bio-7, 14 or 10-dATP labeled probe and a 5 pg spot of Bio-3-dATP labeled probe were visible. After 1.5 hours, the 1 pg spot of each biotin-dATP-labeled probe was visible.

Assay [3] has as its system human β-globin gene. As to the kind of experiment: Detection of single-copy gene sequence in Southern blot of Eco RI digested human DNA. The note with it: NBT/BCIP dye system; probe 100 ng/ml, hybridization 16-24 hours. As for the experimental part:
A plasmid containing the 1.1 Kb Mst II fragment of the human β-globin gene in the Eco RI site of pBR322 (obtained from Dr. Y. W. Kan, UCSF) was nick translated with either Biotin-n-dATP in the presence of dTTP, dCTP, and dGTP, or Biotin-n-dCTP in the presence of dATP, dTTP, and dGTP. All nucleotides were at 20 μM and the reaction was allowed to proceed for 90 minutes. Conditions for nick translation of the DNA probe and purification of the biotin-labeled material are given in the manual of the BRL DNA Detection System.
The biotinylated probe was hybridizedto a Southern blot of Eco RI digested human DNA or to an Eco RI digest of the plasmid DNA. Probe concentration was 100 ng/ml and hybridization was allowed to proceed for 16-24 hours under conditions described by Leary et al. (Leary, J. J., Brigati, D. J. and Ward, D. C. (1983) Proc. Natl. Acad. Sci. USA 80 4045-4049). The filter was developed with the BRL Detection System as described in the system's instruction manual. The single copy β-globin gene Fragment at 5.2 Kb was observed within 3 hours of staining with the NBT/BCIP dye system for DNA probes labeled with Biotin-n-dATP where n=3, 7, 10 or 14 and Biotin-n-dCTP where n=7 or 10.

Assay [4] addresses T1, DNA polymerase I. Briefly: Incorporation using radiolabelled biotin-nucleotide (32P-dCTP and 3H-biotin). Type of assay: biochemical, E. coli. To be noted: 20 μM [3H-biotin]-7-dATP; FIG. 6. As for the experimental part:
as §1, §2
Using the same protocol, incorporation was then performed using a radiolabelled biotin-nucleotide. Thus, the level of biotin incorporation was directly determined. 200 μl of the reaction mixture contained 10 μCi of α-^32 PdCTP and either 20 μM dATP or 20 μM [^3 H-biotin]-7-dATP. […] The lower curves show the time courses of incorporation of ^32 P-dCMP and the tritium labelled and biotinylated derivative of dAMP.

Assay [5] addresses T1, DNA polymerase I. Briefly: Incorporation of various levels of Bio-7-dATP into plasmid DNA by nick translation. Type of assay: biochemical, E. coli. As for the experimental part: as §1
To examine the detection sensitivity of probes made from the biotinylated nucleotides of the present invention, incorporation of various levels of Bio-7-dATP into plasmid DNA was carried out by nick translation as previously disclosed.
as §3

Where [6] appears, read: 90 min, 15° C., read-out: % Incorporation (90 min.).
Where [7] appears, read: after 30 minutes' incubation in NBT/BCIP dye mixture.

Like-named read-outs stand apart in the source and are kept apart here.

T1 sequence (P00582 whole entry): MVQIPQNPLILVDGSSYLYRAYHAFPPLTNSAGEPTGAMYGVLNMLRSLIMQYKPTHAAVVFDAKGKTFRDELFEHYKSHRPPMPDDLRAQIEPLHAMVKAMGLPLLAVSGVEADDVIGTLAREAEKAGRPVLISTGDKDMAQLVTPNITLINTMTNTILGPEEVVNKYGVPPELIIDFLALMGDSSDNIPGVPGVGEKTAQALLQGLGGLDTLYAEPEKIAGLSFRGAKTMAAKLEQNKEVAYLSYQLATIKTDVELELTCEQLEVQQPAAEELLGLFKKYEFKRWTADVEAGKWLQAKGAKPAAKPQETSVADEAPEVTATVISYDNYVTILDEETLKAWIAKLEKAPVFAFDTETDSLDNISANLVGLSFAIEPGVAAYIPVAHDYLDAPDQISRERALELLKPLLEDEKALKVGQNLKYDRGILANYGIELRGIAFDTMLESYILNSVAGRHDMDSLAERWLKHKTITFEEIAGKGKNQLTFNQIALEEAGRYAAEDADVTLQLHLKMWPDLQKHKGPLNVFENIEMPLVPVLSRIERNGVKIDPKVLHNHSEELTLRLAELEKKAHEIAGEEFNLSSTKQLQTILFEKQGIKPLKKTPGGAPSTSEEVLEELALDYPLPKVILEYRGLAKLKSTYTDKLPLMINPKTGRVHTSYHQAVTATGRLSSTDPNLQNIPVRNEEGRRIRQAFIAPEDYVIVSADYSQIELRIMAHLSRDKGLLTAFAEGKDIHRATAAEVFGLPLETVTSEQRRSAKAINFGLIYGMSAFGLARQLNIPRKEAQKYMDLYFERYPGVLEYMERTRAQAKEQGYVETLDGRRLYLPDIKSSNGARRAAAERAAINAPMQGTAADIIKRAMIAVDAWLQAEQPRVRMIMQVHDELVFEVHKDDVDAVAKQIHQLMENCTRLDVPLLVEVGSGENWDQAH

For the molecule `O=C(CCCC[C@@H]1SC[C@@H]2NC(=O)N[C@@H]21)NCCNc1ncnc2c1ncn2[C@H]1C[C@H](O)[C@@H](COP(=O)(O)OP(=O)(O)OP(=O)(O)O)O1` [Biotin-3-dATP], the activity at 20 µM in assay [1] (setting [6]) amounted to 29%. Further, the “spot of labeled probe visible (sensitivity)” value (“spot of labeled probe visible” for short) in assay [2] (setting [7]) was determined as 5 pg. For the same molecule, in assay [3], the “time of staining within which single copy β-globin gene fragment at 5.2 Kb was observed” value (“time … at 5.2 Kb was observed” below) is not above 3 h.

For the molecule `O=C(CCCC[C@@H]1SC[C@@H]2NC(=O)N[C@@H]21)NCCNc1ccn([C@H]2C[C@H](O)[C@@H](COP(=O)(O)OP(=O)(O)OP(=O)(O)O)O2)c(=O)n1` [Biotin-3-dCTP], the activity at 20 µM in assay [1] (setting [6]) stood at 12%.

As for `O=C(CCCC[C@@H]1SC[C@@H]2NC(=O)N[C@@H]21)NCCCCCCNc1ncnc2c1ncn2[C@H]1C[C@H](O)[C@@H](COP(=O)(O)OP(=O)(O)OP(=O)(O)O)O1` [Biotin-7-dATP, N^6-(6-hexylamidobiotin)-2'-deoxyadenosine 5'-triphosphate], the activity at 20 µM in assay [1] (setting [6]) came to 53%. Also, the “spot of labeled probe visible” value in assay [2] (setting [7]) is given as 2 pg. For the same molecule, the “time … at 5.2 Kb was observed” value in assay [3] was not above 3 h.

In the case of `O=C(CCCC[C@@H]1SC[C@@H]2NC(=O)N[C@@H]21)NCCCCCCNc1ccn([C@H]2C[C@H](O)[C@@H](COP(=O)(O)OP(=O)(O)OP(=O)(O)O)O2)c(=O)n1` [Biotin-7-dCTP], the activity at 20 µM in assay [1] (setting [6]) worked out at 44%. In addition, in assay [3], the “time … at 5.2 Kb was observed” value was not above 3 h.

Take `O=C(CCCC[C@@H]1SC[C@@H]2NC(=O)N[C@@H]21)NCCCCCCNC(=O)CNc1ncnc2c1ncn2[C@H]1C[C@H](O)[C@@H](COP(=O)(O)OP(=O)(O)OP(=O)(O)O)O1` [Biotin-10'-dATP]: in assay [1] (setting [6]), the activity at 20 µM stood at 6.9%.

In the case of `O=C(CCCC[C@@H]1SC[C@@H]2NC(=O)N[C@@H]21)NCCCCCC(=O)NCCNc1ncnc2c1ncn2[C@H]1C[C@H](O)[C@@H](COP(=O)(O)OP(=O)(O)OP(=O)(O)O)O1` [Biotin-10-dATP], the activity at 20 µM in assay [1] (setting [6]) worked out at 15%. The “spot of labeled probe visible” value in assay [2] (setting [7]) is reported as 2 pg. The “time … at 5.2 Kb was observed” value in assay [3] is not above 3 h.

For `O=C(CCCC[C@@H]1SC[C@@H]2NC(=O)N[C@@H]21)NCCCCCC(=O)NCCNc1ccn([C@H]2C[C@H](O)[C@@H](COP(=O)(O)OP(=O)(O)OP(=O)(O)O)O2)c(=O)n1` [Biotin-10-dCTP], in assay [1] (setting [6]), the activity at 20 µM is 22%. Further, the figures for the “spot of labeled probe visible” value in assay [2] (setting [7]) and in assay [2] (after 1.5 hours in NBT/BCIP dye mixture) were 2 pg and 1 pg, respectively. Further, the “time … at 5.2 Kb was observed” value in assay [3] is not above 3 h.

Take `O=C(CCCCCNC(=O)CCCC[C@@H]1SC[C@@H]2NC(=O)N[C@@H]21)NCCCCCCNc1ncnc2c1ncn2[C@H]1C[C@H](O)[C@@H](COP(=O)(O)OP(=O)(O)OP(=O)(O)O)O1` [Biotin-14-dATP]: the activity at 20 µM in assay [1] (setting [6]) was 33%. Also, the “spot of labeled probe visible” value in assay [2] (setting [7]) is listed as 2 pg. Also, the “time … at 5.2 Kb was observed” value in assay [3] is not above 3 h.

With `O=C(CCCCCNC(=O)CCCC[C@@H]1SC[C@@H]2NC(=O)N[C@@H]21)NCCCCCCNc1ccn([C@H]2C[C@H](O)[C@@H](COP(=O)(O)OP(=O)(O)OP(=O)(O)O)O2)c(=O)n1` [Biotin-14-dCTP], the activity at 20 µM in assay [1] (setting [6]) worked out at 42%.

Regarding `O=C(CCCCCNC(=O)CCCC[C@@H]1SC[C@@H]2NC(=O)N[C@@H]21)NCCCCCCNC(=O)CNc1ncnc2c1ncn2[C@H]1C[C@H](O)[C@@H](COP(=O)(O)OP(=O)(O)OP(=O)(O)O)O1` [Biotin-17-dATP], the activity at 20 µM in assay [1] (setting [6]) amounted to 6.7%.

Regarding `NCCCCCCNc1ccn([C@H]2C[C@H](O)[C@@H](COP(=O)(O)OP(=O)(O)OP(=O)(O)O)O2)c(=O)n1` [N^4 --(6-aminohexyl)dCTP, N^4-(6-aminohexyl)dCTP], the activity at 20 µM in assay [1] (setting [6]) was determined as 74%.

For the molecule `NCCCCCCNc1ncnc2c1ncn2[C@H]1C[C@H](O)[C@@H](COP(=O)(O)OP(=O)(O)OP(=O)(O)O)O1` [N^6 --aminohexyldATP, N^6-(6-aminohexyl)dATP], the activity at 20 µM in assay [1] (read-out: % Incorporation (90 min.), 90 min, 15° C.) is 67%.

For the molecule `O=C(CCCC[C@@H]1SC[C@@H]2NC(=O)N[C@@H]21)NCCCCCCNc1ncnc2c1ncn2[C@H]1C[C@H](O)[C@@H](COP(=O)(O)OP(=O)(O)OP(=O)(O)O)O1` [[^3 H-biotin]-7-dATP], the “correspondence of time courses of incorporation of 32P-dCMP and the tritium labelled and biotinylated derivative of dAMP” value in assay [4] is listed as “close correspondence”.

Consider `Nc1ncnc2c1ncn2[C@H]1C[C@H](O)[C@@H](COP(=O)(O)OP(=O)(O)OP(=O)(O)O)O1` [dATP, reference compound], for which, in assay [1] (setting [6]), the activity at 20 µM amounted to 100%.

In the case of `Nc1ccn([C@H]2C[C@H](O)[C@@H](COP(=O)(O)OP(=O)(O)OP(=O)(O)O)O2)c(=O)n1` [dCTP, reference compound], in assay [1] (setting [6]), the activity at 20 µM was 100%.

In the case of “N^6 -(6-hexylamidobiotin-2'-deoxyadenosine 5'-monophosphate [Bio-7-dAMP]”, the results for the “Bio-7-dAMP per Kb” value in assay [5] (10 min nick translation), in assay [5] (30 min nick translation) and in assay [5] (90 min nick translation) were 7 per Kb, 35 per Kb and 98 per Kb, respectively.
